Consider seven molecules from patent publication US20230017045A1, “PYRIDINE AND PYRIMIDINE CARBOXYLATE HERBICIDES AND METHODS OF USE THEREOF” (Dow AgroSciences LLC, priority 2017, published 2023).

The subject of this assay is test plant species. Description: Post-emergent herbicidal activity test (greenhouse, foliar spray, visual growth reduction). The class given is in vivo. The conditions noted are these: post-emergence, 336 h, 140 g ai/ha. The method in brief: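 Visual scoring 14 d after treatment (0 = no injury, 100 = complete control) against nontreated and solvent-blank plants gave percent growth reduction. Foliar application used a track sprayer delivering 187 L/ha to seedlings at first or second true leaf stage, grown at 23–29 °C day, ~15 h photoperiod.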

Setting [1] is: ECHCG: barnyardgrass (Echinochloa crus-galli), 14 days after application, read-out: Visual Growth Reduction (%) 14 Days After Application, ECHCG.
[2] abbreviates: IPOHE: ivy-leaf morning glory (Ipomoea hederacea), 14 days after application, read-out: Visual Growth Reduction (%) 14 Days After Application, IPOHE.
[3] abbreviates: KCHSC: kochia (Bassia scoparia), 14 days after application, read-out: Visual Growth Reduction (%) 14 Days After Application, KCHSC.
Where [4] appears, read: ORYSA: rice (Oryza sativa), 14 days after application, read-out: Visual Growth Reduction (%) 14 Days After Application, ORYSA.
The mark [5] stands for this setting: SETFA: giant foxtail (Setaria faberi), 14 days after application, read-out: Visual Growth Reduction (%) 14 Days After Application, SETFA.
[6] abbreviates: SORVU: grain sorghum (Sorghum vulgare), 14 days after application, read-out: Visual Growth Reduction (%) 14 Days After Application, SORVU.
[7] abbreviates: STEME: common chickweed (Stellaria media), 14 days after application, read-out: Visual Growth Reduction (%) 14 Days After Application, STEME.
Where [8] appears, read: TRZAS: wheat, spring (Triticum aestivum), 14 days after application, read-out: Visual Growth Reduction (%) 14 Days After Application, TRZAS.
The mark [9] stands for this setting: blackgrass (Alopecurus myosuroides), 14 Days After Application, read-out: Visual Growth Reduction (%) ALOMY.
Setting [10] is: canada thistle (Cirsium arvense), 14 Days After Application, read-out: Visual Growth Reduction (%) CIRAR.
[11] abbreviates: crabgrass (Digitaria sanguinalis), 14 Days After Application, read-out: Visual Growth Reduction (%) DIGSA.
Where [12] appears, read: lambsquarters (Chenopodium album), 14 Days After Application, read-out: Visual Growth Reduction (%) CHEAL.
Setting [13] is: redroot pigweed (Amaranthus retroflexus), 14 Days After Application, read-out: Visual Growth Reduction (%) AMARE.
[14] abbreviates: wild oat (Avena fatua), 14 Days After Application, read-out: Visual Growth Reduction (%) AVEFA.
Where [15] appears, read: yellow nutsedge (Cyperus esculentus), 14 Days After Application, read-out: Visual Growth Reduction (%) CYPES.

Where two headings read alike, the source gives them in different places.

With `COC(=O)c1nc(-c2ccc3c(c2OC)OC(F)(F)O3)ccc1Cl` [F369, Methyl 3-chloro-6-(2,2-difluoro-4-methoxybenzo[d][1,3]dioxol-5-yl)picolinate], the pest or weed control at 140 g/ha was 45 to 59% under setting [1]; 95 to 100% under setting [2]; 30 to 44% under setting [3]; 0 to 29% under setting [4]; 60 to 74% under setting [5]; 85 to 94% under setting [6]. Further, the pest or weed control at 140 g/ha reads like this: under setting [7], 0 to 29%; under setting [8], 60 to 74%; under setting [9], 30 to 44%; under setting [10], 85 to 94%; under setting [11], 85 to 94%; under setting [12], 30 to 44%. Further, the pest or weed control at 140 g/ha runs as follows: under setting [13], 60 to 74%; under setting [14], 30 to 44%; under setting [15], 0 to 29%.
Regarding `COC(=O)c1nc(-c2cc(Cl)c(C(F)(F)F)cc2C)c(F)cc1Cl` [F370, Methyl 3-chloro-6-(5-chloro-2-methyl-4-(trifluoromethyl)phenyl)-5-fluoropicolinate], the pest or weed control at 140 g/ha is, setting by setting: under setting [1], 0 to 29%; under setting [2], 95 to 100%; under setting [3], 0 to 29%; under setting [4], 0 to 29%; under setting [5], 60 to 74%; under setting [6], 85 to 94%. Moreover, the pest or weed control at 140 g/ha reads like this: under setting [7], 0 to 29%; under setting [8], 0 to 29%; under setting [9], 0 to 29%; under setting [10], 75 to 84%; under setting [11], 45 to 59%; under setting [12], 45 to 59%. The pest or weed control at 140 g/ha runs as follows: under setting [13], 85 to 94%; under setting [14], 0 to 29%; under setting [15], 0 to 29%.
With `COC(=O)c1nc(-c2cc(Cl)c(C(F)(F)F)cc2C)ccc1Cl` [F371, Methyl 3-chloro-6-(5-chloro-2-methyl-4-(trifluoromethyl)phenyl)picolinate], the pest or weed control at 140 g/ha reads like this: under setting [1], 0 to 29%; under setting [2], 95 to 100%; under setting [3], 0 to 29%; under setting [4], 0 to 29%; under setting [5], 0 to 29%; under setting [6], 75 to 84%. Also, the pest or weed control at 140 g/ha reads like this: under setting [7], 0 to 29%; under setting [8], 0 to 29%; under setting [9], 0 to 29%; under setting [10], 0 to 29%; under setting [11], 45 to 59%; under setting [12], 30 to 44%. In addition, the pest or weed control at 140 g/ha was 30 to 44% under setting [13], 0 to 29% under setting [14] and 0 to 29% under setting [15].
As for `C=Cc1cc(-c2nc(C(=O)OC)c(Cl)cc2F)c(OC)c2c1OC(F)(F)O2` [F372, Methyl 3-chloro-6-(2,2-difluoro-4-methoxy-7-vinylbenzo[d][1,3]dioxol-5-yl)-5-fluoropicolinate], the pest or weed control at 140 g/ha reads like this: under setting [1], 0 to 29%; under setting [2], 95 to 100%; under setting [3], 0 to 29%; under setting [4], 0 to 29%; under setting [5], 0 to 29%; under setting [6], 30 to 44%. Besides, the pest or weed control at 140 g/ha fell in the range of 0 to 29% under setting [7]; 0 to 29% under setting [8]; 0 to 29% under setting [9]; 0 to 29% under setting [10]; 0 to 29% under setting [11]; 0 to 29% under setting [12]. Besides, the pest or weed control at 140 g/ha runs as follows: under setting [13], 45 to 59%; under setting [14], 0 to 29%; under setting [15], 0 to 29%.
As to `COC(=O)c1nc(-c2ccc(C(F)(F)F)cc2Cl)c(F)cc1F` [F373, Methyl 6-(2-chloro-4-(trifluoromethyl)phenyl)-3,5-difluoropicolinate], the pest or weed control at 140 g/ha is, setting by setting: under setting [1], 75 to 84%; under setting [2], 95 to 100%; under setting [3], 75 to 84%; under setting [4], 0 to 29%; under setting [5], 75 to 84%; under setting [6], 95 to 100%. The pest or weed control at 140 g/ha runs as follows: under setting [7], 30 to 44%; under setting [8], 30 to 44%; under setting [9], 0 to 29%; under setting [10], 95 to 100%; under setting [11], 95 to 100%; under setting [12], 95 to 100%. For the same molecule, the pest or weed control at 140 g/ha under setting [13] is 95 to 100%, the pest or weed control at 140 g/ha under setting [14] was 45 to 59% and the pest or weed control at 140 g/ha under setting [15] fell in the range of 0 to 29%.
Take `COC(=O)c1nc(-c2ccc(C(F)(F)F)cc2Br)c(F)cc1F` [F374, Methyl 6-(2-bromo-4-(trifluoromethyl)phenyl)-3,5-difluoropicolinate]: the pest or weed control at 140 g/ha was in the range of 75 to 84% under setting [1]; 95 to 100% under setting [2]; 75 to 84% under setting [3]; 45 to 59% under setting [4]; 85 to 94% under setting [5]; 95 to 100% under setting [6]. The pest or weed control at 140 g/ha is, setting by setting: under setting [7], 0 to 29%; under setting [8], 60 to 74%; under setting [9], 45 to 59%; under setting [10], 95 to 100%; under setting [11], 85 to 94%; under setting [12], 95 to 100%. Also, the pest or weed control at 140 g/ha by setting is: under setting [13], 95 to 100%; under setting [14], 45 to 59%; under setting [15], 0 to 29%.
On to `COC(=O)c1nc(-c2ccc(C(F)(F)F)cc2F)c(F)cc1F` [F375, Methyl 3,5-difluoro-6-(2-fluoro-4-(trifluoromethyl)phenyl)picolinate], for which the pest or weed control at 140 g/ha is 85 to 94% under setting [1]; 95 to 100% under setting [2]; 60 to 74% under setting [3]; 0 to 29% under setting [4]; 85 to 94% under setting [5]; 85 to 94% under setting [6]. The pest or weed control at 140 g/ha reads like this: under setting [7], 0 to 29%; under setting [8], 75 to 84%; under setting [9], 45 to 59%; under setting [10], 85 to 94%; under setting [11], 85 to 94%; under setting [12], 85 to 94%. Further, the pest or weed control at 140 g/ha fell in the range of 95 to 100% under setting [13], 60 to 74% under setting [14] and 0 to 29% under setting [15].
